Test results reported in patent publication US20090298912A1, “Arginase II: A Target treatment of aging heart and heart failure” (The Johns Hopkins University, priority 2005, published 2009).
Entries after “also recorded” stand apart in the source; their conditions may differ.

Columns and labels:
[1] = tested on: isolated rat cardiac myocytes; assay: Contractility (sarcomere shortening) in isolated rat myocytes; format: cell-based; conditions: for Sarcomere shortening, agent alone: agent alone (L-arginine 0.1 mM), n=3, species of myocytes not stated; for Effect on the BEC-induced increase in contractility: L-NAME 10^−4 M (0.1 mM), SMTC 10 μM; for Emax, increase in myocardial contractility (sarcomere shortening) / EC50: dose response; for EC50: log value, read-out: LogEC50, increase in myocardial contractility (sarcomere shortening) (converted)
Experimental: (§1) Measurement of Contractility in Isolated Rat and Mouse Myocytes: Both rat and mouse myocytes were isolated by enzymatic digestion as previously described (2, 3). Myocytes were transferred to a lucite chamber on the stage of an inverted microscope (Nikon TE 200), continuously superfused with Tyrodes containing 1.0 mM Ca^2+, and stimulated at 1 Hz. Sarcomere length was recorded with an IonOptix intensified charged coupled device camera (iCCD) camera. Change in average sarcomere length was determined by fast Fourier transform of the Z-line density trace to the frequency domain (IonOptix, Milton, Mass.) as previously described (2, 3).
(§2) Data Analysis and Statistics: All data are presented as mean±SEM, with N being indicated for each experimental protocol. For dose responses, data was fitted using the software program Prism 4 (Graphpad) and Emax and EC50 calculated. Statistical analysis was performed using one-way analysis of variance with post test or unpaired Student t test where appropriate.

NO production = NO production (nitrite levels) in heart and isolated cardiac myocyte lysates; format: biochemical, rat; conditions: for Effect on myocyte NO production: isolated myocytes, exogenous L-arginine 0.1 mM alone; for NO production: BEC 10 μmol/L, n=6
Experimental: NOS Activity and NO Production: NO production was evaluated by measuring nitrite levels (Calbiochem) following pre-incubation of heart and myocytes with BEC (10 μmol/L) in PBS (pH 7.4) as previously described (52).

arginase [2] = target: T1, arginase (Rattus norvegicus, UniProt O08701); assay: Arginase activity in rat heart and isolated myocyte homogenates; format: biochemical; conditions: isolated rat myocytes, dose-dependent
T1 construct: Arginase activity is present in both whole rat heart (n=4) and isolated rat myocytes (n=3); from tissue; host or cells: Wistar rat heart tissue and freshly isolated rat cardiac myocytes (homogenates)
T1 sequence (O08701 23-354): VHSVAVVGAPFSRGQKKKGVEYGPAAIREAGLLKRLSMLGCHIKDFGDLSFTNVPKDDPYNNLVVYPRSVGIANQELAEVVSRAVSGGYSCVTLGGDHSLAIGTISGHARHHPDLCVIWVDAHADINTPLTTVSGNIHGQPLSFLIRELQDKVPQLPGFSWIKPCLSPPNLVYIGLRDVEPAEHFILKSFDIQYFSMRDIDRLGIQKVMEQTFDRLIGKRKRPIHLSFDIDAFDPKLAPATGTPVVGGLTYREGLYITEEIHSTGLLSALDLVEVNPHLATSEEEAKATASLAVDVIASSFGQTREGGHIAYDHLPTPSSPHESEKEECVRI
Experimental: (§3) Arginase Activity: Rat hearts and myocytes were homogenized in lysis buffer (50 mM Tris-HCl, pH 7.5, 0.1 mM EDTA and protease inhibitor) and centrifuged for 30 min at 14,000 g at 4° C. for an arginase activity assay as described previously (20).

arginase [3] = assay: as above; format: biochemical; conditions: whole rat heart homogenate, dose-dependent
Experimental: as §3

isolated mouse myocytes = assay: Contractility (sarcomere shortening) in isolated mouse myocytes (WT, NOS1 and NOS3 deficient); format: cell-based
Description: Animals: Mice (8 to 10 weeks old) homozygous for targeted disruption of the NOS1 gene (NOS1^−/−, n=3), the NOS3 gene (NOS3^−/−, n=3), and wild-type control mice (WT, C57BL6J, n=3) were purchased from Jackson Laboratories. All rats (Wistar, 11 to 14 weeks old) were purchased from Harlan Laboratory. All protocols conformed to the current National Institutes of Health and American Physiological Society Guidelines for the Use and Care of Laboratory Animals.
as §1, §2

In the case of `COC(=O)[C@@H](N)CCCNC(=N)N[N+](=O)[O-]` [L-NAME], the “Sarcomere shortening, agent alone” value [1] was 0.76±0.06 fold change and the “Effect on the BEC-induced increase in contractility” value ([1]; isolated rat myocytes) was “completely abolished; also recorded: completely inhibited”.

In the case of `N=C(N)NCCC[C@H](N)C(=O)O` [L-arginine], the “Effect on myocyte NO production” value (NO production) was “did not effect”, the “Effect on myocyte NO production” value (NO production; listed as L-Arginine) was “no effect” and the “Sarcomere shortening, agent alone” value [1] was 1.1±0.05 fold change.

`N[C@@H](CSCCB(O)O)C(=O)O` [BEC, S-(2-boronoethyl)-L-cysteine] was tested, and the “Arginase activity in presence of inhibitor” value (arginase [2]) was “inhabitable; also recorded: inhibited”, the “Arginase activity in presence of inhibitor” value (arginase [3]) was “inhibitable; also recorded: inhibited” and the NO production (NO production; heart lysates) was 16.7±1 μmol/mg protein. For the same compound, the NO production (NO production; isolated myocyte lysates) was 11.1±2.2 μmol/mg protein, the “Contractility, fold change in sarcomere shortening” value ([1]; isolated rat myocytes, BEC 10^−5M alone (FIG. 4a)) was 2.1±0.14 fold change and the “Contractility (sarcomere shortening), fold change” value ([1]; isolated rat myocytes, BEC alone, NOS1 inhibitor experiment (FIG. 5a)) was 2.06±0.14. The “Emax, increase in myocardial contractility (sarcomere shortening)” value ([1]; isolated rat myocytes) was 1.8±0.3 fold increase, the EC50 ([1]; isolated rat myocytes) was 1580 nM and the “Effect on sarcomere shortening” value ([1]; isolated rat myocytes, increasing doses) was “dose dependently increased”. For the same compound, the “Emax, basal sarcomere shortening” value (isolated mouse myocytes; myocytes from NOS1 deficient mice) was 1.11±0.08, the “Effect on contractility” value (isolated mouse myocytes; myocytes from NOS1 deficient mice, increasing doses) was “no effect” and the “Emax, basal sarcomere shortening” value (isolated mouse myocytes; myocytes from NOS3 deficient mice) was 1.81±0.17. For the same compound, the “Effect on sarcomere shortening” value (isolated mouse myocytes; myocytes from NOS3 deficient mice, increasing doses) was “dose dependently increased”, the “Effect on sarcomere shortening” value (isolated mouse myocytes; myocytes from WT mice, increasing doses) was “dose dependently increased” and the “Emax, basal sarcomere shortening” value (isolated mouse myocytes; myocytes from wild type mice) was 1.97±0.24.

`CSC(N)=NCCC[C@H](N)C(=O)O` [SMTC] was tested, and the “Effect on the BEC-induced increase in contractility” value ([1]; isolated rat myocytes) was “abolished; also recorded: inhibited”.

`N=C(NO)NCC[C@H](N)C(=O)O` [Nor-NOHA, N-hydroxy-nor-L-arginine] was tested, and the “Increase in contractility (sarcomere shortening)” value ([1]; isolated rat myocytes, Nor-NOHA dose response (FIG. 4b legend)) was 1.9±0.45 fold increase, the “Emax, increase in myocardial contractility (sarcomere shortening)” value ([1]; isolated rat myocytes) was 1.98±0.23 fold increase and the EC50 ([1]; isolated rat myocytes) was 1580 nM.
